Article PMC5218480 (PLoS ONE, 2017)

Test system: MV-4-11 cells
Assay: Gene expression microarray analysis (Affymetrix PrimeView) and GSEA
Type: cell-based, human
Design: RFU PODN (11730768_x_at) / Fold change /veh PODN (11730768_x_at) / RFU LINC00158 (11744669_a_at) / Fold change /veh LINC00158 (11744669_a_at) / RFU DUSP10 (11751237_a_at) / Fold change /veh DUSP10 (11751237_a_at) / RFU ID3 (11757404_x_at) / Fold change /veh ID3 (11757404_x_at) / RFU PLEKHG5 (11737974_s_at) / Fold change /veh PLEKHG5 (11737974_s_at) / RFU LRRC4B (11730491_at) / Fold change /veh LRRC4B (11730491_at) / RFU GIMAP4 (11747438_a_at) / Fold change /veh GIMAP4 (11747438_a_at) / RFU KRT8 (11758183_x_at) / Fold change /veh KRT8 (11758183_x_at) / RFU CNN1 (11734310_a_at) / Fold change /veh CNN1 (11734310_a_at) / RFU VPS37D (11726825_at) / Fold change /veh VPS37D (11726825_at) / RFU C10orf10 (11716522_x_at) / Fold change /veh C10orf10 (11716522_x_at) / RFU KIR2DL2 /// KIR2DL4 /// KIR2DL5A /// KIR2DL5B /// KIR2DS1 /// KIR2DS2 /// KIR2DS3 /// KIR2DS4 /// KIR3DL3 /// KIR3DL3 /// KIR3DS1 (11738374_at) / Fold change /veh KIR2DL2 /// KIR2DL4 /// KIR2DL5A /// KIR2DL5B /// KIR2DS1 /// KIR2DS2 /// KIR2DS3 /// KIR2DS4 /// KIR3DL3 /// KIR3DL3 /// KIR3DS1 (11738374_at) / RFU C1QL1 (11718748_at) / Fold change /veh C1QL1 (11718748_at) / RFU TMPRSS4 (11747572_a_at) / Fold change /veh TMPRSS4 (11747572_a_at) / RFU HAMP (11756126_x_at) / Fold change /veh HAMP (11756126_x_at) / RFU RNFT2 (11725882_a_at) / Fold change /veh RNFT2 (11725882_a_at) / RFU NR4A2 (11747474_a_at) / Fold change /veh NR4A2 (11747474_a_at) / RFU ABCC12 (11746883_a_at) / Fold change /veh ABCC12 (11746883_a_at) / RFU TMEM136 (11760407_x_at) / Fold change /veh TMEM136 (11760407_x_at) / RFU CLDN22 /// WWC2 (11732394_at) / Fold change /veh CLDN22 /// WWC2 (11732394_at) / RFU HLA-DPB1 (11760878_x_at) / Fold change /veh HLA-DPB1 (11760878_x_at) / RFU SPINT1 (11716480_a_at) / Fold change /veh SPINT1 (11716480_a_at) / RFU GAP43 (11754022_s_at) / Fold change /veh GAP43 (11754022_s_at) / RFU A4GNT (11735810_at) / Fold change /veh A4GNT (11735810_at) / RFU PRB3 (11715151_x_at) / Fold change /veh PRB3 (11715151_x_at) / RFU TUBB4B (11761932_at) / Fold change /veh TUBB4B (11761932_at) / RFU CAPN14 (11732068_a_at) / Fold change /veh CAPN14 (11732068_a_at) / RFU TMCC2 (11721928_a_at) / Fold change /veh TMCC2 (11721928_a_at) / RFU IRGQ (11745062_a_at) / Fold change /veh IRGQ (11745062_a_at) / RFU FAM174B (11720279_a_at) / Fold change /veh FAM174B (11720279_a_at) / RFU TMPRSS4 (11748680_a_at) / Fold change /veh TMPRSS4 (11748680_a_at) / RFU FAM212B (11763350_a_at) / Fold change /veh FAM212B (11763350_a_at) / RFU PLEKHG5 (11743358_a_at) / Fold change /veh PLEKHG5 (11743358_a_at) / RFU ZSCAN30 (11745921_a_at) / Fold change /veh ZSCAN30 (11745921_a_at) / RFU CMKLR1 (11741424_a_at) / Fold change /veh CMKLR1 (11741424_a_at) / RFU LOC101060620 /// MAPK8IP1 (11723275_at) / Fold change /veh LOC101060620 /// MAPK8IP1 (11723275_at) / RFU SPTSSB (11747773_x_at) / Fold change /veh SPTSSB (11747773_x_at) / RFU PRSS12 (11739890_at) / Fold change /veh PRSS12 (11739890_at) / RFU BIN1 (11741810_x_at) / Fold change /veh BIN1 (11741810_x_at) / RFU WNT11 (11732464_a_at) / Fold change /veh WNT11 (11732464_a_at) / RFU C10orf10 (11716521_a_at) / Fold change /veh C10orf10 (11716521_a_at) / RFU C5orf56 (11738089_at) / Fold change /veh C5orf56 (11738089_at) / RFU CYB561 (11721691_x_at) / Fold change /veh CYB561 (11721691_x_at) / RFU ANKRD19P (11752326_a_at) / Fold change /veh ANKRD19P (11752326_a_at) / RFU OR2T12 /// OR2T33 /// OR2T8 (11738714_s_at) / Fold change /veh OR2T12 /// OR2T33 /// OR2T8 (11738714_s_at) / RFU VCAN (11748164_a_at) / Fold change /veh VCAN (11748164_a_at) / RFU JSRP1 (11732532_at) / Fold change /veh JSRP1 (11732532_at) / RFU KRTAP10-11 (11738290_x_at) / Fold change /veh KRTAP10-11 (11738290_x_at) / RFU MYO3A (11730013_a_at) / Fold change /veh MYO3A (11730013_a_at) / RFU EBF3 (11725865_a_at) / Fold change /veh EBF3 (11725865_a_at) / RFU CAMK2N1 (11719241_x_at) / Fold change /veh CAMK2N1 (11719241_x_at) / RFU C5orf56 (11738088_a_at) / Fold change /veh C5orf56 (11738088_a_at) / RFU OLFML3 (11715873_a_at) / Fold change /veh OLFML3 (11715873_a_at) / RFU LOC100653217 /// NTM (11731650_a_at) / Fold change /veh LOC100653217 /// NTM (11731650_a_at) / RFU MAPK11 (11762145_a_at) / Fold change /veh MAPK11 (11762145_a_at) / RFU FIZ1 (11724087_x_at) / Fold change /veh FIZ1 (11724087_x_at) / RFU OASL (11726364_x_at) / Fold change /veh OASL (11726364_x_at) / RFU SOX15 (11748057_x_at) / Fold change /veh SOX15 (11748057_x_at) / RFU CD79A (11719716_a_at) / Fold change /veh CD79A (11719716_a_at) / RFU HIST1H1D (11736915_at) / Fold change /veh HIST1H1D (11736915_at) / RFU CASKIN2 (11723855_a_at) / Fold change /veh CASKIN2 (11723855_a_at) / RFU LOC730098 (11760151_x_at) / Fold change /veh LOC730098 (11760151_x_at) / RFU OR4N2 (11742367_at) / Fold change /veh OR4N2 (11742367_at) / RFU PRRT2 (11749266_a_at) / Fold change /veh PRRT2 (11749266_a_at) / RFU SNX32 (11753110_a_at) / Fold change /veh SNX32 (11753110_a_at) / RFU CDHR5 (11726645_a_at) / Fold change /veh CDHR5 (11726645_a_at) / RFU RCAN1 (11760418_a_at) / Fold change /veh RCAN1 (11760418_a_at) / RFU FAM167A (11723789_a_at) / Fold change /veh FAM167A (11723789_a_at) / RFU FAM26E (11764081_at) / Fold change /veh FAM26E (11764081_at) / RFU ISYNA1 (11749810_s_at) / Fold change /veh ISYNA1 (11749810_s_at) / RFU ACY1 (11761880_at) / Fold change /veh ACY1 (11761880_at) / RFU 11764098_at / Fold change /veh 11764098_at / RFU SAMD14 (11745864_x_at) / Fold change /veh SAMD14 (11745864_x_at) / RFU NPB (11741838_a_at) / Fold change /veh NPB (11741838_a_at) / RFU TMPRSS6 (11731388_a_at) / Fold change /veh TMPRSS6 (11731388_a_at) / RFU KRTAP10-2 (11738614_at) / Fold change /veh KRTAP10-2 (11738614_at) / RFU ARHGAP8 /// PRR5-ARHGAP8 (11727945_x_at) / Fold change /veh ARHGAP8 /// PRR5-ARHGAP8 (11727945_x_at) / RFU KRTAP5-7 /// NADSYN1 (11734609_at) / Fold change /veh KRTAP5-7 /// NADSYN1 (11734609_at) / RFU RASL12 (11751679_a_at) / Fold change /veh RASL12 (11751679_a_at) / RFU CDKN2B (11736163_a_at) / Fold change /veh CDKN2B (11736163_a_at) / RFU PRF1 (11729649_at) / Fold change /veh PRF1 (11729649_at) / RFU, ZNF638 /// ZNF638-IT1 / Fold change vs veh, ZNF638 /// ZNF638-IT1 / RFU, PANK3 / Fold change vs veh, PANK3 / RFU, SH3YL1 / Fold change vs veh, SH3YL1 / RFU, ZEB2 / Fold change vs veh, ZEB2 / RFU, NRIP1 / Fold change vs veh, NRIP1 / RFU, PTTG1IP / Fold change vs veh, PTTG1IP / RFU, CAPN2 / Fold change vs veh, CAPN2 / RFU, MED14 / Fold change vs veh, MED14 / RFU, SNORA58 / Fold change vs veh, SNORA58 / RFU, C1orf63 / Fold change vs veh, C1orf63 / RFU, LRRFIP1 / Fold change vs veh, LRRFIP1 / RFU, NDUFAF7 / Fold change vs veh, NDUFAF7 / RFU, SLC12A2 / Fold change vs veh, SLC12A2 / RFU, IBTK / Fold change vs veh, IBTK / RFU, ESF1 / Fold change vs veh, ESF1 / Fold change vs veh, TMEM50B / RFU, TAOK1 / Fold change vs veh, TAOK1 / RFU, ACBD3 / Fold change vs veh, ACBD3 / RFU, TMA16 / Fold change vs veh, TMA16 / RFU, RWDD3 / Fold change vs veh, RWDD3 / RFU, BCAT1 / Fold change vs veh, BCAT1 / RFU, EDEM3 / Fold change vs veh, EDEM3 / RFU, TMEM33 / Fold change vs veh, TMEM33 / RFU, WDR75 / Fold change vs veh, WDR75 / RFU, AHCTF1 / Fold change vs veh, AHCTF1 / RFU, TFRC / Fold change vs veh, TFRC / RFU, ZDHHC17 / Fold change vs veh, ZDHHC17 / RFU, NOM1 / Fold change vs veh, NOM1 / RFU, ARL8B / Fold change vs veh, ARL8B / RFU, ZBTB11 / Fold change vs veh, ZBTB11 / RFU, TAMM41 / Fold change vs veh, TAMM41 / RFU, KIAA1704 /// LOC100996395 / Fold change vs veh, KIAA1704 /// LOC100996395 / RFU, ING1 / Fold change vs veh, ING1 / RFU, TRMT61B / Fold change vs veh, TRMT61B / RFU, FUBP3 / Fold change vs veh, FUBP3 / RFU, TP53 / Fold change vs veh, TP53 / RFU, TNKS2 / Fold change vs veh, TNKS2 / RFU, ZFP14 / Fold change vs veh, ZFP14 / RFU, ACTR2 / Fold change vs veh, ACTR2 / RFU, PPP3R1 / Fold change vs veh, PPP3R1 / RFU, PIK3R1 / Fold change vs veh, PIK3R1 / RFU, HNRNPA1 / Fold change vs veh, HNRNPA1 / RFU, RNF170 / Fold change vs veh, RNF170 / RFU, ZNF28 / Fold change vs veh, ZNF28 / RFU, RNGTT / Fold change vs veh, RNGTT / RFU, OGT / Fold change vs veh, OGT / RFU, BRD1 / Fold change vs veh, BRD1 / RFU, MARS / Fold change vs veh, MARS / RFU, ZNF655 / Fold change vs veh, ZNF655 / RFU, FAHD1 / Fold change vs veh, FAHD1 / RFU, BDP1 / Fold change vs veh, BDP1 / RFU, LRRCC1 / Fold change vs veh, LRRCC1 / RFU, ARID1A / Fold change vs veh, ARID1A / RFU, ZNF146 / Fold change vs veh, ZNF146 / RFU, ZNF330 / Fold change vs veh, ZNF330 / RFU, GPN3 / Fold change vs veh, GPN3 / RFU, C9orf123 / Fold change vs veh, C9orf123 / RFU, N4BP2L2 / Fold change vs veh, N4BP2L2 / RFU, ARFIP1 / Fold change vs veh, ARFIP1 / RFU, FAM179B / Fold change vs veh, FAM179B / RFU, BCL10 / Fold change vs veh, BCL10 / RFU, UHRF1BP1L / Fold change vs veh, UHRF1BP1L / RFU, BET1 / Fold change vs veh, BET1 / RFU, CNOT2 / Fold change vs veh, CNOT2 / RFU, ZNF268 / Fold change vs veh, ZNF268 / Fold change vs veh, ZNF507 / RFU, DGCR2 / Fold change vs veh, DGCR2 / RFU, WDSUB1 / Fold change vs veh, WDSUB1 / Fold change vs veh, HSP90B1 /// MIR3652 / RFU, ADSS / Fold change vs veh, ADSS / RFU, GK / Fold change vs veh, GK / RFU, ZNF148 / Fold change vs veh, ZNF148 / RFU, TAF9 / Fold change vs veh, TAF9 / RFU, SLC1A5 / Fold change vs veh, SLC1A5 / RFU, SLMO2 / Fold change vs veh, SLMO2 / RFU, ABCC4 / Fold change vs veh, ABCC4 / RFU, LOC101060439 /// RAP1B / Fold change vs veh, LOC101060439 /// RAP1B / RFU, RFX7 / Fold change vs veh, RFX7 / RFU, GTPBP10 / Fold change vs veh, GTPBP10 / RFU, CNEP1R1 / Fold change vs veh, CNEP1R1 / RFU, BIVM-ERCC5 /// ERCC5 / Fold change vs veh, BIVM-ERCC5 /// ERCC5 / RFU, ILF3 / Fold change vs veh, ILF3 / RFU 11762660_at / Fold change /veh 11762660_at / RFU VCAN (11757783_s_at) / Fold change /veh VCAN (11757783_s_at) / RFU DDX43 (11728927_at) / Fold change /veh DDX43 (11728927_at) / RFU KRT8 (11758188_x_at) / Fold change /veh KRT8 (11758188_x_at) / RFU NKD1 (11759106_at) / Fold change /veh NKD1 (11759106_at) / RFU SRD5A1 (11742802_a_at) / Fold change /veh SRD5A1 (11742802_a_at) / RFU TPSAB1 /// TPSB2 (11721975_s_at) / Fold change /veh TPSAB1 /// TPSB2 (11721975_s_at) / RFU GSTM3 (11746129_a_at) / Fold change /veh GSTM3 (11746129_a_at) / RFU IL23R (11737362_x_at) / Fold change /veh IL23R (11737362_x_at) / RFU TMEM51 (11727254_a_at) / Fold change /veh TMEM51 (11727254_a_at) / RFU PIWIL2 (11732686_x_at) / Fold change /veh PIWIL2 (11732686_x_at) / RFU ORM1 (11744905_x_at) / Fold change /veh ORM1 (11744905_x_at) / RFU CCDC152 (11743942_at) / Fold change /veh CCDC152 (11743942_at) / RFU ECM1 (11717891_a_at) / Fold change /veh ECM1 (11717891_a_at) / RFU IL23R (11748794_a_at) / Fold change /veh IL23R (11748794_a_at) / RFU TNFAIP8L3 (11732012_x_at) / Fold change /veh TNFAIP8L3 (11732012_x_at) / RFU MBOAT4 (11741988_at) / Fold change /veh MBOAT4 (11741988_at) / RFU 11764193_at / Fold change /veh 11764193_at / RFU TMEM53 (11763286_at) / Fold change /veh TMEM53 (11763286_at) / RFU MAGEB2 (11727129_at) / Fold change /veh MAGEB2 (11727129_at) / RFU TMEM200A (11744735_a_at) / Fold change /veh TMEM200A (11744735_a_at) / RFU CCDC152 (11751479_a_at) / Fold change /veh CCDC152 (11751479_a_at) / RFU FAM211A (11726209_a_at) / Fold change /veh FAM211A (11726209_a_at) / RFU RGS16 (11746705_a_at) / Fold change /veh RGS16 (11746705_a_at) / RFU VCAN (11755009_s_at) / Fold change /veh VCAN (11755009_s_at) / RFU RHOB (11743442_s_at) / Fold change /veh RHOB (11743442_s_at) / RFU RGS16 (11720943_a_at) / Fold change /veh RGS16 (11720943_a_at) / RFU RGS16 (11720944_at) / Fold change /veh RGS16 (11720944_at) / RFU, VPS4B / Fold change vs veh, VPS4B / RFU, CREB1 / Fold change vs veh, CREB1 / RFU, DNAJC13 / Fold change vs veh, DNAJC13 / RFU, GNAQ / Fold change vs veh, GNAQ / RFU, CDK5R1 / Fold change vs veh, CDK5R1 / RFU, ZRANB3 / Fold change vs veh, ZRANB3 / RFU, CUL4A / Fold change vs veh, CUL4A / RFU, CCNY / Fold change vs veh, CCNY / RFU, UFL1 / Fold change vs veh, UFL1 / RFU, COG3 / Fold change vs veh, COG3 / RFU, DIAPH2 / Fold change vs veh, DIAPH2 / RFU, SKA2 / Fold change vs veh, SKA2 / RFU, AFF3 / Fold change vs veh, AFF3 / RFU, LMF1 / Fold change vs veh, LMF1 / RFU, IPO11 / Fold change vs veh, IPO11 / RFU, DFFB / Fold change vs veh, DFFB / RFU, FOXP1 / Fold change vs veh, FOXP1 / RFU, CARD8 / Fold change vs veh, CARD8 / RFU, STRN3 / Fold change vs veh, STRN3 / RFU, ADK / Fold change vs veh, ADK / RFU, RASSF2 / Fold change vs veh, RASSF2 / RFU, WIPF1 / Fold change vs veh, WIPF1 / RFU, LARP1B / Fold change vs veh, LARP1B / RFU, RASA1 / Fold change vs veh, RASA1 / RFU, RB1 / Fold change vs veh, RB1 / RFU, PPFIA1 / Fold change vs veh, PPFIA1 / RFU, MAT2A / Fold change vs veh, MAT2A / RFU, CCT5 / Fold change vs veh, CCT5 / RFU, WDR92 / Fold change vs veh, WDR92 / RFU, CUX1 / Fold change vs veh, CUX1 / RFU, TTC7A / Fold change vs veh, TTC7A / RFU, TMEM135 / Fold change vs veh, TMEM135 / RFU, DEPTOR / Fold change vs veh, DEPTOR / RFU, CPM / Fold change vs veh, CPM / RFU, DNAJB6 / Fold change vs veh, DNAJB6 / RFU, CACNA2D3 / Fold change vs veh, CACNA2D3 / RFU, DTX4 / Fold change vs veh, DTX4 / RFU, TFCP2 / Fold change vs veh, TFCP2 / RFU, GMCL1 /// GMCL1P1 / Fold change vs veh, GMCL1 /// GMCL1P1 / RFU, AEBP2 / Fold change vs veh, AEBP2 / RFU, SNHG1 /// SNORD22 /// SNORD25 /// SNORD26 /// SNORD27 /// SNORD28 /// SNORD29 /// SNORD31 / Fold change vs veh, SNHG1 /// SNORD22 /// SNORD25 /// SNORD26 /// SNORD27 /// SNORD28 /// SNORD29 /// SNORD31 / Fold change (Aza/veh), C12orf56 (ProbeSet 11735607_a_at) / Fold change (ACY-1035/veh), C12orf56 (ProbeSet 11735607_a_at) / Fold change (Aza/veh), FGFR1OP (ProbeSet 11751329_s_at) / Fold change (ACY-1035/veh), FGFR1OP (ProbeSet 11751329_s_at) / Fold change (Aza/veh), VPS36 (ProbeSet 11739960_a_at) / Fold change (ACY-1035/veh), VPS36 (ProbeSet 11739960_a_at) / RFU SYPL1 (11715823_x_at) / Fold change /veh SYPL1 (11715823_x_at) / RFU IGFBP7 (11715501_s_at) / Fold change /veh IGFBP7 (11715501_s_at) / RFU REEP3 (11722064_at) / Fold change /veh REEP3 (11722064_at) / RFU IGLL1 (11728026_x_at) / Fold change /veh IGLL1 (11728026_x_at): dose or concentration left out as unconfirmed
Settings: MV-4-11 cells, 48 hours

## Nc1ccc(-c2cccs2)cc1NC(=O)c1ccc2c(c1)cc(C1CC1)n2CCN1CCOCC1 [ACY-1035]
  Fold change /veh RCAN1 (11760418_a_at): 1.01
